The values that follow come from article PMC7144120, “Psoralen Derivatives as Inhibitors of Mycobacterium tuberculosis Proteasome” (Molecules, 2020).

Series [1] addresses T1, Mtb proteasome (Mycobacterium tuberculosis, UniProt P9WHT9).
T1 construct: made in house
Type of series: biochemical. The following applies: for Reversibility of inhibition: Mtb proteasome, 100-fold dilution after preincubation; for Reversibility of inhibition at lower concentrations: concentrations ≤ IC50.

Series [2] concerns the target T1, Mtb proteasome. Description: biochemical. In kind it is biochemical. The following applies: for IC50: 50 µM Suc-LLVY-AMC, 30 min preincubation, 37 °C, triplicate, read-out: IC50 against the Mtb proteasome; for Hill Coefficient: from IC50 curve, Mtb proteasome.
The target of series [3] is T1, Mtb proteasome. Kind of series: Determination of Ki and type of inhibition (varied substrate concentration, GraphPad Prism model fit). To be noted: for Ki: best scoring inhibition model; for Type of Inhibition: best ranking model (mixed, competitive, noncompetitive, uncompetitive). In kind it is biochemical. The method, then:
The concentrations of 11, 13 and 15 were 0, 0.56, 0.81, 1.15, 1.65, 2.35, 4.80, 9.80 and 20 µM. Further, the concentrations for compound 8 were 0, 1.65, 2.35, 4.80, 9.80 µM and for bortezomib 0, 0.28, 0.40, 0.58, 0.82, 1.18, 2.40, 4.90 and 10 µM. All experiments were performed in triplicate. The resulting data were analyzed using the GraphPad Prism 6 software and were fitted to the software provided models for competitive, noncompetitive, uncompetitive and mixed type enzyme inhibition. The mode of inhibition and Ki values were chosen from the best ranking model, as determined by the software. Representative graphs (Michaelis-Menten, Dixon and Lineweaver-Burk plots) depicting the data fit for the best ranking model of inhibition for all compounds are shown in the Supplementary data (Figures S2–S19).

In series [4] the test system is ß5i of IP. To be noted: read-out: IC50 against ß5i of IP; cited from earlier work.
Series [5] concerns the target T1, Mtb proteasome. Description: Determination of kinact/Ki values for PR-957. In kind it is biochemical. To be noted: 50 µM Suc-LLVY-AMC, 37 °C. As to the method: The kinetic assays were conducted as previously described in Enzymatic assays. Briefly, 7.8 μL of the Mtb proteasome (final concentration of 7 nM) in 20 mM HEPES buffer, pH = 7.5 with 0.5 mM EDTA was added to 0.2 μL of the compound solution at 100x final concentration in DMSO. The concentrations of PR-957 used were 0, 1.15, 1.65, 2.35, 4.80, 9.80 and 20 µM. The enzymatic reaction was initiated by the addition of 2 μL Suc-LLVY-AMC (final concentration of 50 μM) and the reaction progress was determined on a BioTek Synergy HT microplate reader, by monitoring fluorescence at 460 nm (λex = 360 nm) for 90 min at 37 °C. Values of kobs were derived from the fit of the data to the equation P = (vi/kobs)x [1 − exp(−kobs·t)] in GraphPadPrism. The data obtained were afterwards plotted against inhibitor concentration, to obtain kinact/Ki by fitting to the equation […]. The representative plots are presented in Supplementary data (Figure S33–S36).

Series [6] has as its target T1, Mtb proteasome. The arrangement: method as in PMID 16468985. To be noted: substrate of Mtb proteasome; read-out: Km (literature value); cited from earlier work.
For series [7], the system named is Cc1cc(=O)oc2cc(NC(=O)[C@H](Cc3ccc(O)cc3)NC(=O)[C@@H](NC(=O)[C@H](CC(C)C)NC(=O)[C@H](CC(C)C)NC(=O)CCC(=O)O)C(C)C)ccc12. Description: purified protein, by the assay type. The following applies: other: substrate of Mtb proteasome, 10 nM enzyme.
Description: Additionally, the Km of the substrate Suc-LLVY-AMC was calculated based on the initial velocity of the enzymatic reaction using 10 nM Mtb proteasome at various concentration of the substrate (12.5, 25, 50, 100, 250, 500 µM).

For orientation: IC50 means the midpoint of a concentration-inhibition curve. Usually Ki stands for the dissociation constant of the complex between target and ligand, obtained from inhibition or displacement. The term kinact/KI denotes the second-order rate constant of inactivation. One may read the Km as the substrate concentration at which the rate is half of its maximum.

Entries after “also recorded” stand apart in the source; their conditions may differ. Like-named read-outs stand apart in the source and are kept apart here. *1 amine or outer side, *2 acyl side, *3 side chain or, on linkers, in order; H or OH if unused. Where a SMILES comes first, the peptide text is derived from it. The star is where a group is joined. AMC = Cc1cc(=O)oc2cc(N*)ccc12; Suc = O=C(CCC(=O)[*:2])[*:1]

T1 sequence (P9WHT9 whole entry, looked up): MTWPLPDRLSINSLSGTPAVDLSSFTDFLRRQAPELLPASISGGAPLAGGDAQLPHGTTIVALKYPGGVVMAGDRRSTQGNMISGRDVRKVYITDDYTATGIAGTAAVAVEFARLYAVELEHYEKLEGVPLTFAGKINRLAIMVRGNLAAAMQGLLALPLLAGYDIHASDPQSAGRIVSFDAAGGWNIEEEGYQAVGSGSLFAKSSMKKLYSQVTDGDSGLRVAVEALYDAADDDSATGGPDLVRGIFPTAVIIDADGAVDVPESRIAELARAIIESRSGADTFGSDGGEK

`Cc1c(CCC(=O)ON2C(=O)CCC2=O)c(=O)oc2cc3occ(-c4ccco4)c3cc12` [Compound 11]: in series [1], the Reversibility of inhibition result is “partially reversible inhibition; also recorded: (Partially) reversible inhibition” and the “Reversibility of inhibition at lower concentrations” value is on record as “reversible inhibition”. In series [2], the IC50 was found to be 8.8 ± 1 µM and the “Hill Coefficient” value is on record as 0.90. For the same molecule, in series [3], the “α (mixed inhibition model)” value was found to be 6.67 and the “Type of Inhibition” value is “mixed type of inhibition”. The Ki in series [3] (Ki) was found to be 4.2 µM. For the same molecule, in series [4], the IC50 is 0.94 µM.

Take `Cc1cc(-c2coc3cc4oc(=O)c(CC(=O)ON5C(=O)CCC5=O)c(C)c4cc23)c(C)s1` [Compound 13]: in series [1], the Reversibility of inhibition result is “partially reversible inhibition; also recorded: (Partially) reversible inhibition” and the “Reversibility of inhibition at lower concentrations” value is on record as “reversible inhibition”. For the same molecule, in series [2], the IC50 was 3.2 ± 0.3 µM and the “Hill Coefficient” value came to 0.90. The molecule also yielded a Ki in series [3] (Ki) of 1.1 µM. In addition, the “Type of Inhibition” value in series [3] was “mixed type of inhibition”. In series [4], the 50% inhibitory concentration (IC50) was 4.4 µM.

As for `COc1ccc(C[C@H](NC(=O)[C@H](C)NC(=O)CN2CCOCC2)C(=O)N[C@@H](Cc2ccccc2)C(=O)[C@@]2(C)CO2)cc1` [PR-957, reference compound], the Reversibility of inhibition entry in series [1] is listed as “irreversibly inhibited; also recorded: Irreversible inhibition”. In addition, in series [1] (concentration equal or higher than IC50), the “recovery of proteasome activity” value is “no significant recovery of proteasome activity; also recorded: completely inhibited the enzyme”. Besides, the kinact/KI in series [5] turned out to be 96 M⁻¹ s⁻¹. Also, in series [2], the IC50 turned out to be 2.2 ± 1 µM and the “Hill Coefficient” value is reported as 0.91. In addition, the “Type of Inhibition” value in series [3] is reported as “Noncompetitive inhibition”. Besides, the Ki in series [3] (read-out: Ki) came to 5.2 µM. Further, the IC50 in series [4] was 0.015 µM.

On to `Cc1cc(=O)oc2cc(NC(=O)[C@H](Cc3ccc(O)cc3)NC(=O)[C@@H](NC(=O)[C@H](CC(C)C)NC(=O)[C@H](CC(C)C)NC(=O)CCC(=O)O)C(C)C)ccc12` [Suc-LLVY-AMC] (Suc-LLVY-{AMC}), for which, in series [6], the Km is 56 ± 15 µM.

For “Mtb proteasome (Mycobacterium tuberculosis H37Rv)”, in series [7], the Km result is “^aKi determined with GraphPad Prism by fitting the data to several inhibition models (mixed, competitive, noncompetitive, uncompetitive). The best scoring model was further examined by creating Dixon, Lineweaver-Burk and Michaelis-Menten plots. Km for Suc-LLVY-AMC is 60 ± 15 µM (see Supplementary data for details). ND, not determined. ^b The data were calculated as residual activities (RAs) of β5i in the presence of 10 μM of each compound (standard errors for RAs were < 15%). µM”.
